Source: US11814392B2, “Chromenopyridine-based compounds and methods of making and use thereof” (Rosalind Franklin University of Medicine and Science, priority 2020, dated 2023)

Target: T1, PMCT (Homo sapiens, UniProt Q86YT5)
T1 construct: expressed in transfected cells; host or cells: HEK293T cells transfected with pcDNA3.1(+)-SLC13A5 using PEI
Assay: PMCT inhibition, citrate transport assay of whole HEK293T cells
Type: cell-based
Settings: for inhibition at 2.8 µM / inhibition at 28 µM / inhibition at 280 µM / inhibition at 140 µM: HEK-293T; for inhibition at 2.8 µM: read-out: PMCT Inhibition, Inhibitor Concentration 2.8 μM, HEK293T cells; for inhibition at 28 µM: read-out: PMCT Inhibition, Inhibitor Concentration 28 μM, HEK293T cells; for inhibition at 280 µM: read-out: PMCT Inhibition, Inhibitor Concentration 280 μM, HEK293T cells; for dose-dependence of PMCT inhibition / PMCT Inhibition: HEK293T cells; for dose-dependence of PMCT inhibition: even at moderate concentrations (FIG. 1); for inhibition at 140 µM: read-out: PMCT Inhibition, Inhibitor Concentration 140 μM, HEK293T cells; for PMCT Inhibition: Inhibitor Concentration 280 μM, 280 µM

T1 sequence (Q86YT5 whole entry): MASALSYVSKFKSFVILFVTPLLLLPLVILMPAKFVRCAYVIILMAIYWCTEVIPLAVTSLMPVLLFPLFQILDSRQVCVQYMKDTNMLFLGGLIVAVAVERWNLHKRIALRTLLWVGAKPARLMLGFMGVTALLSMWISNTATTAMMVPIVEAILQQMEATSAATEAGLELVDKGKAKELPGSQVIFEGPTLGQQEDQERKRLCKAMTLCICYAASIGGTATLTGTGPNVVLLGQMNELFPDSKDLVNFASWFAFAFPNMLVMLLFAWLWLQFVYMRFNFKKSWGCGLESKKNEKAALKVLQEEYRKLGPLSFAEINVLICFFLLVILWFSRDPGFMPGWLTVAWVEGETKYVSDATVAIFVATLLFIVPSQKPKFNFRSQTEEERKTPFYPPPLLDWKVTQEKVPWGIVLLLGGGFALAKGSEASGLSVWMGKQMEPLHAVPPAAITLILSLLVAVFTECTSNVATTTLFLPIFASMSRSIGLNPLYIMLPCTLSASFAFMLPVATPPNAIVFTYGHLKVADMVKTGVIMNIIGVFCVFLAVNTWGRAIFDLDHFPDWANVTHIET

Row | Compound | inhibition at 2.8 µM | inhibition at 28 µM | inhibition at 280 µM | dose-dependence of PMCT inhibition | inhibition at 140 µM | PMCT Inhibition
1 | CSc1ccc(SC2c3ccc(C)cc3Oc3nc(N)c(C#N)c(N)c32)cc1 (stereo not shown) [Compound 9, 2,4-Diamino-8-methyl-5-((4-(methylthio)phenyl)thio)-5H-chromeno[2,3-b]pyridine-3-carbonitrile] | 35.7% | 1.8% | 35.7% | – | – | –
2 | COc1ccc(SC2c3ccc(O)cc3Oc3nc(N)c(C#N)c(N)c32)cc1 (stereo not shown) [Compound 5, 2,4-Diamino-8-hydroxy-5-((4-methoxyphenyl)thio)-5H-chromeno[2,3-b]pyridine-3-carbonitrile] | -12.8% | -4.5% | -3.2% | – | – | –
3 | CSc1ccc(SC2c3ccc(O)cc3Oc3nc(N)c(C#N)c(N)c32)cc1 (stereo not shown) [Compound 3, 2,4-Diamino-8-hydroxy-5-((4-(methylthio)phenyl)thio)-5H-chromeno[2,3-b]pyridine-3-carbonitrile] | 6.2% | 9.9% | 58.7% | dose-dependent inhibition | 28.6% | –
4 | COc1ccc2c(c1)Oc1nc(N)c(C#N)c(N)c1C2Sc1ccc(O)cc1 (stereo not shown) [Compound 7, 2,4-Diamino-5-((4-hydroxyphenyl)thio)-8-methoxy-5H-chromeno[2,3-b]pyridine-3-carbonitrile] | 28% | -13.3% | 62.9% | dose-dependent inhibition | 42.5% | 77.7%
5 | COc1ccc(SC2c3c(OC)cc(OC)cc3Oc3nc(N)c(C#N)c(N)c32)cc1 (stereo not shown) [Compound 2, 2,4-diamino-6,8-dimethoxy-5-((4-methoxyphenyl)thio)-5H-chromeno[2,3-b]pyridine-3-carbonitrile] | 34.7% | 24% | 50% | dose-dependent inhibition | 48.5% | –
6 | CCN(CC)c1ccc2c(c1)Oc1nc(N)c(C#N)c(N)c1C2Sc1ccc(SC)cc1 (stereo not shown) [Compound 8, 2,4-diamino-8-(diethylamino)-5-((4-(methylthio)phenyl)thio)-5H-chromeno[2,3-b]pyridine-3-carbonitrile] | -41.5% | -1.5% | 58.4% | – | – | –
7 | CCN(CC)c1ccc2c(c1)Oc1nc(N)c(C#N)c(N)c1C2Sc1ccc(OC)cc1 (stereo not shown) [Compound 4, 2,4-diamino-8-(diethylamino)-5-((4-methoxyphenyl)thio)-5H-chromeno[2,3-b]pyridine-3-carbonitrile] | -23.2% | 28.6% | -8.7% | – | – | –
8 | COc1cc2c(cc1OC)C(Sc1ccc(SC)cc1)c1c(nc(N)c(C#N)c1N)O2 (stereo not shown) [Compound 6, 2,4-diamino-7,8-dimethoxy-5-((4-(methylthio)phenyl)thio)-5H-chromeno[2,3-b]pyridine-3-carbonitrile] | 9.4% | -45.9% | 70.2% | dose-dependent inhibition | 46.8% | 87.4%
